Assay results taken from patent publication US20090311217A1, “3-SUBSTITUTED-1H-INDOLE COMPOUNDS, THEIR USE AS MTOR KINASE AND PI3 KINASE INHIBITORS, AND THEIR SYNTHESES” (priority 2008, published 2009).

Assays:
Format in all cases: biochemical
human TOR = target: T1, human TOR (Homo sapiens, UniProt P42345); assay: mTOR enzyme assay (DELFIA, His6-S6K substrate); settings: read-out: mTOR Kinase Avg. IC50
T1 construct: FLAG

PI3K-alpha = PI3K-alpha (Homo sapiens, UniProt P42336); assay: PI3K-alpha fluorescence polarization assay; settings: read-out: PI3Kα Avg. IC50
PI3K-gamma = PI3K-gamma (Homo sapiens, UniProt P48736); assay: PI3K-gamma fluorescence polarization assay; settings: PI3Kγ Avg. IC50
How it was run: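 Reactions used 5 ng enzyme with 2.5 μM diC8-PI(4,5)P2 and 25 μM ATP in 5 mM HEPES pH 7, 2.5 mM MgCl2, run 1 h at 25° C. After an EDTA quench (10 mM), 100 nM GST-GRP1 PH domain and 5 nM BODIPY-TMR-IP4 were added and fluorescence polarization was read.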

Chain of PI3K-gamma (P48736 whole entry, species assumed, the tested form may be a part): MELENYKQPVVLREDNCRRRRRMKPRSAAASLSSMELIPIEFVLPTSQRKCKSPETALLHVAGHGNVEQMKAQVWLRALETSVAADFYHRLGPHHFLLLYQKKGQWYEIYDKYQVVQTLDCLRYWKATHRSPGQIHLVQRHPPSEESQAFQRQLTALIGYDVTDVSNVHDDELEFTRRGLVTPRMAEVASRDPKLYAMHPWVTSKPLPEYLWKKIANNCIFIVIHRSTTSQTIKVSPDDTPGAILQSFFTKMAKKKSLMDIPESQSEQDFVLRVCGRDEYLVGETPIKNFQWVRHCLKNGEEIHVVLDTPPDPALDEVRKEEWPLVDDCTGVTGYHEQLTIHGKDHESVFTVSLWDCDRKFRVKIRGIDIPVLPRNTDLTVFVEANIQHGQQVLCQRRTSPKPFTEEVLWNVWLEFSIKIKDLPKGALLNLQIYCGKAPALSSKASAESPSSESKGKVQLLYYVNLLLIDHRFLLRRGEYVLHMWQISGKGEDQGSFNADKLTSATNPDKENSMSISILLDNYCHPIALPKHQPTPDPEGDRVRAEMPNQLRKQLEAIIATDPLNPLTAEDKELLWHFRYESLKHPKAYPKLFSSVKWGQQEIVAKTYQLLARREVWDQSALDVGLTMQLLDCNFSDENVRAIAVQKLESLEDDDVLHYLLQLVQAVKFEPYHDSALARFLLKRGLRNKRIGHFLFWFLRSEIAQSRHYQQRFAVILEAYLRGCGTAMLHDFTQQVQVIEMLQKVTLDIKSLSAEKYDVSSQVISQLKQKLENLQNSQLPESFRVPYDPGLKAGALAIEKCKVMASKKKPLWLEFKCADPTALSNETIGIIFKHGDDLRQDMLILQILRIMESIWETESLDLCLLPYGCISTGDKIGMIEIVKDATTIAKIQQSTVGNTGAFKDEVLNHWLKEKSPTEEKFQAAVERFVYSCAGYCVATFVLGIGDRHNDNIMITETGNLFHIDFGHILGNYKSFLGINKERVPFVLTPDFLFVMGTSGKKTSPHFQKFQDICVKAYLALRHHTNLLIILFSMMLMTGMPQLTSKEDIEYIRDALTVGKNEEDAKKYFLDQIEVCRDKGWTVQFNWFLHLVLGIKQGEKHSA
Chain of PI3K-alpha (P42336 whole entry, species assumed): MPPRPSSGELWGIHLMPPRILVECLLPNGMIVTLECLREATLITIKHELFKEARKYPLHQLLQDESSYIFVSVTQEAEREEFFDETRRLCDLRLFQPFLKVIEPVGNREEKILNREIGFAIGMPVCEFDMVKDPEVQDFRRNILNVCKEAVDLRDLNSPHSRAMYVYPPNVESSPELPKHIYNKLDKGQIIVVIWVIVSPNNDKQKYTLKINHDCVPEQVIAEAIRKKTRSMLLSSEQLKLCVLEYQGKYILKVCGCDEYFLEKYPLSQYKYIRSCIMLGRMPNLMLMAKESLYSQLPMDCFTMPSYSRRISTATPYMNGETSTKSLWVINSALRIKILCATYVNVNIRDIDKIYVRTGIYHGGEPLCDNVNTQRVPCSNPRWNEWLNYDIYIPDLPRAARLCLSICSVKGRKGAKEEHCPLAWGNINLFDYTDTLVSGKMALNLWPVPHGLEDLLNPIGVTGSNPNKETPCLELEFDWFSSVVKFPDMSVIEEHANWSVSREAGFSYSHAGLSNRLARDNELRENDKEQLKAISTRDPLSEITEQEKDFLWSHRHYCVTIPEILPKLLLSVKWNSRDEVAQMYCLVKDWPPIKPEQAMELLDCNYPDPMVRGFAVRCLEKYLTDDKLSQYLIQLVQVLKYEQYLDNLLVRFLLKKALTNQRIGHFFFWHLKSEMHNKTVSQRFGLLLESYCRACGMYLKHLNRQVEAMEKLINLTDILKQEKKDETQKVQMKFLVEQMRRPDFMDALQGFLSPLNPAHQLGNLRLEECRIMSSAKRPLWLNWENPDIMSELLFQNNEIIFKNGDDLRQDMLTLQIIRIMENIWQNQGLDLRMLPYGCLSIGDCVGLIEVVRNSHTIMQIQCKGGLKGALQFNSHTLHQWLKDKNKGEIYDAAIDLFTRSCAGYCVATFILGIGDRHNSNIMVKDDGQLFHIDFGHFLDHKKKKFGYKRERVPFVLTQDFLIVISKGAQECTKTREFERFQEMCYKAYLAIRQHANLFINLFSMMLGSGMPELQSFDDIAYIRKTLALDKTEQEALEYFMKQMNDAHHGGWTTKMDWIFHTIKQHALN
Chain of PI3K-alpha (P27986 whole entry partner, species assumed): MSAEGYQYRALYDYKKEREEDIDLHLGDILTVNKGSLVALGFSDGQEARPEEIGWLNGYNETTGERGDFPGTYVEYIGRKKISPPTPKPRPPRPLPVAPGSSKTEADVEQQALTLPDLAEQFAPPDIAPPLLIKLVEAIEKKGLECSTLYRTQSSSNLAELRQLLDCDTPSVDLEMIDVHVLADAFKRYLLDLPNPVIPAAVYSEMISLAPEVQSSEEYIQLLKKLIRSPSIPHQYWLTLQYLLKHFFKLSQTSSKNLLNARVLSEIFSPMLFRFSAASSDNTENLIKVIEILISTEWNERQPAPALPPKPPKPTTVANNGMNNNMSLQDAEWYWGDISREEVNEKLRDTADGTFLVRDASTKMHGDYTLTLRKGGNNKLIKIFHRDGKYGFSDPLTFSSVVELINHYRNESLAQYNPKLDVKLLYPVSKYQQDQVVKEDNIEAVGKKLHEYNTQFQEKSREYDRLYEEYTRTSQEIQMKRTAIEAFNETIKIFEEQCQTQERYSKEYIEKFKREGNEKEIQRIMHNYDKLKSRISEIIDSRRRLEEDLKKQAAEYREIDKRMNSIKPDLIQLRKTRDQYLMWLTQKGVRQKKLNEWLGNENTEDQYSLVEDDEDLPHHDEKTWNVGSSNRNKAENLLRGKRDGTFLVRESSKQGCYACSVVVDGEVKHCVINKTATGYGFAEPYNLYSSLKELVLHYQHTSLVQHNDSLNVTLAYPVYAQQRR

SMILES | IC50 (human TOR) | IC50 (PI3K-alpha) | IC50 (PI3K-gamma)
COc1ccc2[nH]c(-c3c(C)nn(C)c3C)c(/C=C3\Oc4ccc(NC(=O)Nc5ccc(NC(=O)CCN(C)C)cc5)cc4C3=O)c2c1 [Compound 691, N-[4-({[(2Z)-2-{[5-methoxy-2-(1,3,5-trimethyl-1H-pyrazol-4-yl)-1H-indol-3-yl]methylidene}-3-oxo-2,3-dihydro-1-benzofuran-5-yl]carbamoyl}amino)phenyl]-N3,N3-dimethyl-b-alaninamide] | 1 nM | 0.25 nM | 2.1 nM
CNC(=O)Nc1ccc2c(c1)C(=O)/C(=C/c1c(Br)[nH]c3ccc(OC)cc13)O2 [Compound 692, 1-{(2Z)-2-[(2-bromo-5-methoxy-1H-indol-3-yl)methylidene]-3-oxo-2,3-dihydro-1-benzofuran-5-yl}-3-methylurea] | 8 nM | 7 nM | 105 nM
CNC(=O)Nc1ccc2c(c1)C(=O)/C(=C/c1c(-c3c(C)nn(C)c3C)[nH]c3c(F)cc(OC)cc13)O2 [Compound 693, 1-[(2Z)-2-{[7-fluoro-5-methoxy-2-(1,3,5-trimethyl-1H-pyrazol-4-yl)-1H-indol-3-yl]methylidene}-3-oxo-2,3-dihydro-1-benzofuran-5-yl]-3-methylurea] | < 1 nM | 0.75 nM | 5.07 nM
CCn1c(C)c(/C=C2\Oc3ccc(NC(=O)Nc4ccc(N(C)C(=O)CCN(C)C)cc4)cc3C2=O)c2cc(OC)ccc21 [Compound 694, N-{4-[({(2Z)-2-[(1-ethyl-5-methoxy-2-methyl-1H-indol-3-yl)methylidene]-3-oxo-2,3-dihydro-1-benzofuran-5-yl}carbamoyl)amino]phenyl}-N,N3,N3-trimethyl-b-alaninamide] | 155 nM | 4 nM | 95 nM
COc1ccc2c(c1)c(/C=C1\Oc3ccc(NC(=O)Nc4ccc(N(C)C(=O)CCN(C)C)cc4)cc3C1=O)c(C)n2CCN1CCN(C)CC1 [Compound 695, N-[4-({[(2Z)-2-({5-methoxy-2-methyl-1-[2-(4-methylpiperazin-1-yl)ethyl]-1H-indol-3-yl}methylidene)-3-oxo-2,3-dihydro-1-benzofuran-5-yl]carbamoyl}amino)phenyl]-N,N3,N3-trimethyl-b-alaninamide] | 330 nM | 4 nM | > 5500 nM
COc1ccc2[nH]c(-c3c(C)nn(C)c3C)c(/C=C3\Oc4ccc(NC(=O)Nc5ccc(N(C)C(=O)CCN(C)C)cc5)cc4C3=O)c2c1 [Compound 696, N-(4-{[(2-{[5-methoxy-2-(1,3,5-trimethyl-1H-pyrazol-4-yl)-1H-indol-3-yl]methylidene}-3-oxo-2,3-dihydro-1-benzofuran-5-yl)carbamoyl]amino}phenyl)-N,N3,N3-trimethyl-b-alaninamide] | 5 nM | 3 nM | 48 nM
COc1ccc2[nH]c(-c3c(C)nn(C)c3C)c(/C=C3\Oc4ccc(NC(=O)Nc5ccc(C(=O)N(C)C6CCN(C)C6)cc5)cc4C3=O)c2c1 (stereo not drawn) [Compound 698, 4-({[(2Z)-2-{[5-methoxy-2-(1,3,5-trimethyl-1H-pyrazol-4-yl)-1H-indol-3-yl]methylidene}-3-oxo-2,3-dihydro-1-benzofuran-5-yl]carbamoyl}amino)-N-methyl-N-(1-methylpyrrolidin-3-yl)benzamide] | 1 nM | 0.3 nM | 3 nM
COc1ccc2[nH]c(-c3c(C)nn(C)c3C)c(/C=C3\Oc4ccc(NC(=O)Nc5ccc(C(=O)N(C)CCN6CCCC6)cc5)cc4C3=O)c2c1 [Compound 701, 4-({[(2Z)-2-{[5-methoxy-2-(1,3,5-trimethyl-1H-pyrazol-4-yl)-1H-indol-3-yl]methylidene}-3-oxo-2,3-dihydro-1-benzofuran-5-yl]carbamoyl}amino)-N-methyl-N-(2-pyrrolidin-1-ylethyl)benzamide] | 1 nM | 0.3 nM | 3 nM
CNC(=O)Nc1ccc2c(c1)C(=O)/C(=C/c1c(-c3c(C)nn(CCN(C)C)c3C)[nH]c3ccc(OC)cc13)O2 [Compound 705, 1-{(2Z)-2-[(2-{1-[2-(dimethylamino)ethyl]-3,5-dimethyl-1H-pyrazol-4-yl}-5-methoxy-1H-indol-3-yl)methylidene]-3-oxo-2,3-dihydro-1-benzofuran-5-yl}-3-methylurea] | 26 nM | 5.5 nM | 25.5 nM
CNC(=O)Nc1ccc2c(c1)C(=O)/C(=C/c1c(-c3cnn(CC(C)C)c3)[nH]c3ccc(OC)cc13)O2 [Compound 706, 1-[(2Z)-2-({5-methoxy-2-[1-(2-methylpropyl)-1H-pyrazol-4-yl]-1H-indol-3-yl}methylidene)-3-oxo-2,3-dihydro-1-benzofuran-5-yl]-3-methylurea] | 10 nM | 1.3 nM | 10 nM
COc1ccc2[nH]c(-c3c(C)nn(C)c3C)c(/C=C3\Oc4ccc(NC(=O)Nc5cccc(C(=O)N(C)CCN(C)C)c5)cc4C3=O)c2c1 [Compound 707, N-[2-(dimethylamino)ethyl]-3-({[(2Z)-2-{[5-methoxy-2-(1,3,5-trimethyl-1H-pyrazol-4-yl)-1H-indol-3-yl]methylidene}-3-oxo-2,3-dihydro-1-benzofuran-5-yl]carbamoyl}amino)-N-methylbenzamide] | 85 nM | 8 nM | 123 nM
COc1ccc2[nH]c(-c3c(C)nn(C)c3C)c(/C=C3\Oc4ccc(NC(=O)Nc5cccc(C(=O)N(C)CCCN(C)C)c5)cc4C3=O)c2c1 [Compound 708, N-[3-(dimethylamino)propyl]-3-({[(2Z)-2-{[5-methoxy-2-(1,3,5-trimethyl-1H-pyrazol-4-yl)-1H-indol-3-yl]methylidene}-3-oxo-2,3-dihydro-1-benzofuran-5-yl]carbamoyl}amino)-N-methylbenzamide] | 115 nM | 42 nM | 351 nM

Second part, the compound after the results:

IC50 (human TOR) | IC50 (PI3K-alpha) | IC50 (PI3K-gamma) | SMILES
4 nM | 0.2 nM | 2.5 nM | COc1ccc2[nH]c(-c3c(C)nn(C)c3C)c(/C=C3\Oc4ccc(NC(=O)Nc5ccc(C(=O)N6CCN(C)CC6)cc5)cc4C3=O)c2c1 [Compound 689, 1-[(2Z)-2-{[5-methoxy-2-(1,3,5-trimethyl-1H-pyrazol-4-yl)-1H-indol-3-yl]methylidene}-3-oxo-2,3-dihydro-1-benzofuran-5-yl]-3-{4-[(4-methylpiperazin-1-yl)carbonyl]phenyl}urea]
4 nM | 0.2 nM | 2.75 nM | COc1ccc2[nH]c(-c3c(C)nn(C)c3C)c(/C=C3\Oc4ccc(NC(=O)Nc5ccc(C(=O)N6CCOCC6)cc5)cc4C3=O)c2c1 [Compound 690, 1-[(2Z)-2-{[5-methoxy-2-(1,3,5-trimethyl-1H-pyrazol-4-yl)-1H-indol-3-yl]methylidene}-3-oxo-2,3-dihydro-1-benzofuran-5-yl]-3-[4-(morpholin-4-ylcarbonyl)phenyl]urea]
1 nM | 0.25 nM | 1.4 nM | COc1ccc2[nH]c(-c3c(C)nn(C)c3C)c(/C=C3\Oc4ccc(NC(=O)Nc5ccc(C(=O)N6CCC(N(C)C)C6)cc5)cc4C3=O)c2c1 (stereo not drawn) [Compound 697, 1-(4-{[3-(dimethylamino)pyrrolidin-1-yl]carbonyl}phenyl)-3-[(2Z)-2-{[5-methoxy-2-(1,3,5-trimethyl-1H-pyrazol-4-yl)-1H-indol-3-yl]methylidene}-3-oxo-2,3-dihydro-1-benzofuran-5-yl]urea]
5 nM | 0.4 nM | 3 nM | CCN1CCN(C(=O)c2ccc(NC(=O)Nc3ccc4c(c3)C(=O)/C(=C/c3c(-c5c(C)nn(C)c5C)[nH]c5ccc(OC)cc35)O4)cc2)CC1 [Compound 699, 1-{4-[(4-ethylpiperazin-1-yl)carbonyl]phenyl}-3-[(2Z)-2-{[5-methoxy-2-(1,3,5-trimethyl-1H-pyrazol-4-yl)-1H-indol-3-yl]methylidene}-3-oxo-2,3-dihydro-1-benzofuran-5-yl]urea]
2 nM | 0.4 nM | 3 nM | COc1ccc2[nH]c(-c3c(C)nn(C)c3C)c(/C=C3\Oc4ccc(NC(=O)Nc5ccc(C(=O)N6CCN(C(C)C)CC6)cc5)cc4C3=O)c2c1 [Compound 700, 1-[(2Z)-2-{[5-methoxy-2-(1,3,5-trimethyl-1H-pyrazol-4-yl)-1H-indol-3-yl]methylidene}-3-oxo-2,3-dihydro-1-benzofuran-5-yl]-3-(4-{[4-(1-methylethyl)piperazin-1-yl]carbonyl}phenyl)urea]
1 nM | 0.3 nM | 3 nM | COc1ccc2[nH]c(-c3c(C)nn(C)c3C)c(/C=C3\Oc4ccc(NC(=O)Nc5ccc(C(=O)N6CCC(N(C)C)CC6)cc5)cc4C3=O)c2c1 [Compound 702, 1-(4-{[4-(dimethylamino)piperidin-1-yl]carbonyl}phenyl)-3-[(2Z)-2-{[5-methoxy-2-(1,3,5-trimethyl-1H-pyrazol-4-yl)-1H-indol-3-yl]methylidene}-3-oxo-2,3-dihydro-1-benzofuran-5-yl]urea]
3 nM | 0.3 nM | 2.5 nM | COc1ccc2[nH]c(-c3c(C)nn(C)c3C)c(/C=C3\Oc4ccc(NC(=O)Nc5ccc(C(=O)N6CCN(C)C(C)C6)cc5)cc4C3=O)c2c1 (stereo not drawn) [Compound 703, 1-{4-[(3,4-dimethylpiperazin-1-yl)carbonyl]phenyl}-3-[(2Z)-2-{[5-methoxy-2-(1,3,5-trimethyl-1H-pyrazol-4-yl)-1H-indol-3-yl]methylidene}-3-oxo-2,3-dihydro-1-benzofuran-5-yl]urea]
4 nM | 0.6 nM | 4 nM | COc1ccc2[nH]c(-c3c(C)nn(C)c3C)c(/C=C3\Oc4ccc(NC(=O)Nc5ccc(C(=O)N(C)C)cc5)cc4C3=O)c2c1 [Compound 704, 4-({[(2Z)-2-{[5-methoxy-2-(1,3,5-trimethyl-1H-pyrazol-4-yl)-1H-indol-3-yl]methylidene}-3-oxo-2,3-dihydro-1-benzofuran-5-yl]carbamoyl}amino)-N,N-dimethylbenzamide]
